Key:
[1] = test system: rabbit serum obtained by immunizing a rabbit with the SARS-CoV strain Frankfurt 1; format: binding; design: Binding of a rabbit serum to linear peptides / Binding of a rabbit serum to looped peptides / Rabbit serum linear peptides / Rabbit serum looped peptides / Binding of a rabbit serum to linear peptides of protein N of SARS-CoV Urbani (Rabbit serum linear peptides) / Binding of a rabbit serum to looped/cyclic peptides of protein N of SARS-CoV Urbani (Rabbit serum looped peptides): unit not given here
[2] = test system: antibodies in sera from SARS patients (sera 1a, 1b, 2, 6, 37, 62, London, SARS-yellow, SARS-green); format: binding, human; design: Binding of serum 6 to linear peptides of protein X1 of SARS-CoV Urbani / Binding of serum 37 to linear peptides of protein X1 of SARS-CoV Urbani / Binding of serum 6 to looped/cyclic peptide (PEPSCAN-ELISA) / Binding of serum 37 to looped/cyclic peptide (PEPSCAN-ELISA) / Binding of serum 37 to looped/cyclic peptides of protein X1 of SARS-CoV Urbani / Binding of serum 6 to linear peptides of protein X2 / Binding of serum 37 to linear peptides of protein X2 / Binding of serum 37 to looped/cyclic peptides of protein X2 of SARS-CoV Urbani / Binding of serum 6 to linear peptides of protein M of SARS-CoV Urbani / Binding of serum 37 to linear peptides of protein M of SARS-CoV Urbani / Binding of serum 6 to looped/cyclic peptides of protein M of SARS-CoV Urbani / Binding of serum 37 to looped/cyclic peptides of protein M of SARS-CoV Urbani / Binding of serum 6 to linear peptides of protein X3 of SARS-CoV Urbani / Binding of serum 37 to linear peptides of protein X3 of SARS-CoV Urbani / Binding of serum 37 to looped/cyclic peptides of protein X3 of SARS-CoV Urbani / Binding of serum 6 to linear peptides of protein X4 of SARS-CoV Urbani / Binding of serum 37 to linear peptides of protein X4 of SARS-CoV Urbani / Binding of serum 37 to looped/cyclic peptides of protein X4 of SARS-CoV Urbani / Binding of serum 6 to linear peptides of protein X5 of SARS-CoV Urbani / Binding of serum 37 to linear peptides of protein X5 of SARS-CoV Urbani / Binding of serum 37 to looped/cyclic peptides of protein X5 of SARS-CoV Urbani / Binding of serum 6 to linear peptides of protein N of SARS-CoV Urbani / Binding of serum 37 to linear peptides of protein N of SARS-CoV Urbani / Binding of serum 6 to linear peptide (PEPSCAN-ELISA) / Binding of serum 1a to looped/cyclic peptides of protein N of SARS-CoV Urbani / Binding of serum 1b to looped/cyclic peptides of protein N of SARS-CoV Urbani / Binding of serum 2 to looped/cyclic peptides of protein N of SARS-CoV Urbani / Binding of serum 6 to looped/cyclic peptides of protein N of SARS-CoV Urbani / Binding of serum 37 to looped/cyclic peptides of protein N of SARS-CoV Urbani / Binding of serum 62 to looped/cyclic peptides of protein N of SARS-CoV Urbani / Binding of serum London to looped/cyclic peptides of protein N of SARS-CoV Urbani / Binding of serum SARS-green to looped/cyclic peptides of protein N of SARS-CoV Urbani: unit not given here
[3] = test system: control sera (pooled serum of ten healthy LUMC hospital workers; commercial negative donor pooled serum from the Dutch bloodbank); format: binding, human; design: Binding of Control serum LUMC to linear peptides / Binding of Control serum Blood-bank to linear peptides / Binding of Control serum LUMC to looped peptides / Binding of Control Serum Blood-Bank to Looped peptides / Binding of Control serum LUMC to linear peptides of the protein M of SARS-CoV Urbani / Binding of Control serum Blood-bank to linear peptides of the protein M of SARS-CoV Urbani / Binding of Control serum LUMC to looped peptides of the protein M of SARS-CoV Urbani / Binding of Control Serum Blood-Bank to Looped peptides of the protein M of SARS-CoV Urbani: unit not given here

Row | Sequence | Rabbit serum linear peptides [1] | Rabbit serum looped peptides [1] | Binding of serum 1a to linear peptides of protein M of SARS-CoV Urbani [2] | Binding of serum 1a to looped/cyclic peptides of protein M of SARS-CoV Urbani [2] | Binding of serum 1b to linear peptides of protein M of SARS-CoV Urbani [2] | Binding of serum 1b to looped/cyclic peptides of protein M of SARS-CoV Urbani [2] | Binding of serum 2 to linear peptides of protein M of SARS-CoV Urbani [2] | Binding of serum 2 to looped/cyclic peptides of protein M of SARS-CoV Urbani [2] | Binding of serum 6 to linear peptides of protein M of SARS-CoV Urbani [2] | Binding of serum 6 to looped/cyclic peptides of protein M of SARS-CoV Urbani [2] | Binding of serum 37 to linear peptides of protein M of SARS-CoV Urbani [2] | Binding of serum 37 to looped/cyclic peptides of protein M of SARS-CoV Urbani [2] | Binding of serum 62 to linear peptides of protein M of SARS-CoV Urbani [2] | Binding of serum 62 to looped/cyclic peptides of protein M of SARS-CoV Urbani [2] | Binding of serum London to linear peptides of protein M of SARS-CoV Urbani [2] | Binding of serum London to looped/cyclic peptides of protein M of SARS-CoV Urbani [2] | Binding of serum SARS-green to linear peptides of protein M of SARS-CoV Urbani [2] | Binding of serum SARS-green to looped/cyclic peptides of protein M of SARS-CoV Urbani [2] | Binding of serum SARS-yellow to linear peptides of protein M of SARS-CoV Urbani [2] | Binding of serum SARS-yellow to looped/cyclic peptides of protein M of SARS-CoV Urbani [2] | other results
1 | AVYRINWVTGGIAIA | 0.4 | 0.5 | 0.7 | 0.8 | 0.6 | 0.4 | 0.6 | 0.6 | 0.2 | 0.6 | 0.8 | 0.7 | 0.8 | 0.7 | 0.3 | 0.2 | 0.3 | 0.4 | 0.1 | 0.7 | Binding of Control Serum Blood-Bank to Looped peptides of the protein M of SARS-CoV Urbani [3]: 0.8; Binding of Control serum Blood-bank to linear peptides of the protein M of SARS-CoV Urbani [3]: 0.7; Binding of Control serum LUMC to linear peptides of the protein M of SARS-CoV Urbani [3]: 0.5; Binding of Control serum LUMC to looped peptides of the protein M of SARS-CoV Urbani [3]: 0.8
2 | AWIMLLQFAYSNRNR | 0.3 | 0.4 | 0.7 | 0.7 | 0.6 | 0.7 | 0.5 | 0.6 | 0.5 | 1.1 | 0.4 | 0.6 | 0.4 | 0.6 | 0.3 | 0.6 | 0.6 | 0.4 | 0.2 | 0.7 | Binding of Control Serum Blood-Bank to Looped peptides of the protein M of SARS-CoV Urbani [3]: 0.7; Binding of Control serum Blood-bank to linear peptides of the protein M of SARS-CoV Urbani [3]: 0.7; Binding of Control serum LUMC to linear peptides of the protein M of SARS-CoV Urbani [3]: 0.5; Binding of Control serum LUMC to looped peptides of the protein M of SARS-CoV Urbani [3]: 0.7

Reference: patent US20070128217A1 (priority 2003, published 2007)
